Data as given in PMC3128679 (Bioorganic & medicinal chemistry letters, 2011).

Key:
Type in all cases: biochemical
SHP2 [1] = biological target: T1, SHP2 (Homo sapiens, UniProt Q06124); assay: in vitro SHP2 inhibition assay; settings: for SHP2 inhibition at 1 mM: 1 mM compound concentration
T1 sequence (Q06124 1-593): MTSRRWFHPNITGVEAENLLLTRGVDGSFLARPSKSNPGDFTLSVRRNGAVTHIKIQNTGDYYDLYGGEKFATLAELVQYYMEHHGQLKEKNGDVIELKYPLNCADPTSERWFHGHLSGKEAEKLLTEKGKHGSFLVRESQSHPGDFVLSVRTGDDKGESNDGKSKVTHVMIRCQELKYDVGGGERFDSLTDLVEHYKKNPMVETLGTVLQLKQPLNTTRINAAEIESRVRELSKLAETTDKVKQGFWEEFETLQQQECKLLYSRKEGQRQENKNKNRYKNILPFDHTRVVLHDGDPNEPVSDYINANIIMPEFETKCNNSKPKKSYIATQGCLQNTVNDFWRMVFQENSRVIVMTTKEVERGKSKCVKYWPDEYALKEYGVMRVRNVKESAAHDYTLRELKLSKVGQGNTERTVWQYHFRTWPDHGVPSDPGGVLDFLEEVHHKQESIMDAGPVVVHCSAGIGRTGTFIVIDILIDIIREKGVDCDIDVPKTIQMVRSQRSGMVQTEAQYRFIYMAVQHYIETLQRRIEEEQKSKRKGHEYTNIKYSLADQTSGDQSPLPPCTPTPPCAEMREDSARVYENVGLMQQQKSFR

SHP1 = SHP1 (Homo sapiens, UniProt P29350); assay: SHP1 inhibition assay
Sequence of SHP1 (P29350 whole entry): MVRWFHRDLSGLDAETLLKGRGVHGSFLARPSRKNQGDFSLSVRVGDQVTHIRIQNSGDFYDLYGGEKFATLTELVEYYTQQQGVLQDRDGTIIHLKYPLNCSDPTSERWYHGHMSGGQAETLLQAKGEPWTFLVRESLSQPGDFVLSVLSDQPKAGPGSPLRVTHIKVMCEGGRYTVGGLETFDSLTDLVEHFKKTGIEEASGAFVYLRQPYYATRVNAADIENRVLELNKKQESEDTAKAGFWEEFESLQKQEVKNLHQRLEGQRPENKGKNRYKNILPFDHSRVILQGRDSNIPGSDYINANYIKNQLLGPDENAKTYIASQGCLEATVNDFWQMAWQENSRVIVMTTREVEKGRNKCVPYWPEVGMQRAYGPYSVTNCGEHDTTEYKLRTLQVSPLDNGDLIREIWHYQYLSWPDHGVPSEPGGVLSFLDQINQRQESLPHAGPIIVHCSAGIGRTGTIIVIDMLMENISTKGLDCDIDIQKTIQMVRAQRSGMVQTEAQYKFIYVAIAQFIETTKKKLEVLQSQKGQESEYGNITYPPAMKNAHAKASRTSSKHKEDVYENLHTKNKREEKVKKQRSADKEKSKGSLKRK

PTP1B = biological target: T2, PTP1B (Homo sapiens, UniProt P18031); assay: PTP1B inhibition assay
T2 sequence (P18031 1-435): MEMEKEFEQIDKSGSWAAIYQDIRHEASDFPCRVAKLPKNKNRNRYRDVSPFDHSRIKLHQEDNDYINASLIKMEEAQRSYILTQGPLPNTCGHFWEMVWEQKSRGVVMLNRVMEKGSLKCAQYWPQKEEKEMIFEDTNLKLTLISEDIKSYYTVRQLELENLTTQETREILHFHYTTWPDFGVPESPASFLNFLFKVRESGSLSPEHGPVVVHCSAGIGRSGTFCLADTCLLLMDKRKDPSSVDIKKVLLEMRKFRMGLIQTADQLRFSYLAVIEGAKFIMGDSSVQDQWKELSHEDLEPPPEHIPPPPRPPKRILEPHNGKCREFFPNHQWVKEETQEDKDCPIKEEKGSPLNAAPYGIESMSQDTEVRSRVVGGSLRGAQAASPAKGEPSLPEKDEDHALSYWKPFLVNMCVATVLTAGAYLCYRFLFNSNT

LYP = biological target: T3, LYP (Homo sapiens, UniProt Q9Y2R2); assay: PTP panel inhibition assay, LYP; settings: at 100 µM
T3 sequence (Q9Y2R2 1-807): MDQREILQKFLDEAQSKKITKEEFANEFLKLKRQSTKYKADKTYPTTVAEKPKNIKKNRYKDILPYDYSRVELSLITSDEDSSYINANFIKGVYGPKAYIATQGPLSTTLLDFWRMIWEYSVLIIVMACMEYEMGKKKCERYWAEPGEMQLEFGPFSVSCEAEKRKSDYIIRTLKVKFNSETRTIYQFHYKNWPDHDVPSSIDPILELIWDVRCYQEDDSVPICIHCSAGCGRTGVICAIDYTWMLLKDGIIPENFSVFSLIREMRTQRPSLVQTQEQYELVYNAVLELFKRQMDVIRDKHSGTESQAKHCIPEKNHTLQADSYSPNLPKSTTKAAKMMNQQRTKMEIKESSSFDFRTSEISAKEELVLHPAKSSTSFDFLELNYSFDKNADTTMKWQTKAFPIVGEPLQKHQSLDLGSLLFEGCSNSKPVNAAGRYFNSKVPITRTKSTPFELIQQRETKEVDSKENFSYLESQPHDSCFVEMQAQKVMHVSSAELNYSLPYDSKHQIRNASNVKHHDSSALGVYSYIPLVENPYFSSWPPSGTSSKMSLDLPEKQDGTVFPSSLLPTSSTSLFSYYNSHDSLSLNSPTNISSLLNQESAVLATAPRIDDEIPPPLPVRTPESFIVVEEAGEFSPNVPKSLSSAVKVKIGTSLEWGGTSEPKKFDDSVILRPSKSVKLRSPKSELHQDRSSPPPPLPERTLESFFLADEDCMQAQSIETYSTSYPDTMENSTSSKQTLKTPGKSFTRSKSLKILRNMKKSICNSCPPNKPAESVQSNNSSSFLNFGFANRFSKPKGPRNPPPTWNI

PTPα = PTPα (Homo sapiens, UniProt P18433); assay: PTP panel inhibition assay, PTPα; settings: at 100 µM
Sequence of PTPα (P18433 20-802): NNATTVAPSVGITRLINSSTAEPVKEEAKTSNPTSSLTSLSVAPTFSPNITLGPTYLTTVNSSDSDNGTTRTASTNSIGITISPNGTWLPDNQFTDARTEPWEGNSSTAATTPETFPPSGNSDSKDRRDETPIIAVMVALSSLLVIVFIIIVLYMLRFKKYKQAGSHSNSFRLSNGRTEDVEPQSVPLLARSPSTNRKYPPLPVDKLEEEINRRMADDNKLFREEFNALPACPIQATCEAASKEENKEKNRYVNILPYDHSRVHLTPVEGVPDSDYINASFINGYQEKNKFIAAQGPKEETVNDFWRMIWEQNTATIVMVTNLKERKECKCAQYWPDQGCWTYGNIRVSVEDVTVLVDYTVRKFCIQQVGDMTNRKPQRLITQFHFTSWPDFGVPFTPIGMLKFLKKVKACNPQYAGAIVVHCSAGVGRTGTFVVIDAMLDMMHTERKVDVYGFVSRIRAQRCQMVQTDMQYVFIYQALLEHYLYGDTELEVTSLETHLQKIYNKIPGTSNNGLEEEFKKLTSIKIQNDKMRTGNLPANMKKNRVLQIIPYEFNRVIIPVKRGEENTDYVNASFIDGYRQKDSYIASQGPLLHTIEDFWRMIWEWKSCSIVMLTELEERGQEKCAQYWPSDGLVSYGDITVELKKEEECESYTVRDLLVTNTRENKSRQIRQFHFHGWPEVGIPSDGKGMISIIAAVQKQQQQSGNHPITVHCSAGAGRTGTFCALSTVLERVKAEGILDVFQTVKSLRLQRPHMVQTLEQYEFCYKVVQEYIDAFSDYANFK

VHR = VHR (Homo sapiens, UniProt P51452); assay: PTP panel inhibition assay, VHR; settings: at 100 µM
Sequence of VHR (P51452 whole entry, species assumed): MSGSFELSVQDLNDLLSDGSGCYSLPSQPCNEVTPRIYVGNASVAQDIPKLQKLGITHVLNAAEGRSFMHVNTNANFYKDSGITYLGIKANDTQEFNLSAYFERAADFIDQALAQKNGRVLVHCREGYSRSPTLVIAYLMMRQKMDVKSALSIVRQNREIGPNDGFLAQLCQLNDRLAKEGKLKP

Cdc14 = assay: PTP panel inhibition assay, Cdc14; settings: at 100 µM
SHP2 [2] = biological target: T1, SHP2; assay: steady-state enzyme kinetic analysis of SHP2 inhibition; settings: C21 at 0, 4, 8 and 12 µM

Question: Which “fold decreased affinity for SHP2” value (SHP2 [1]; relative to C21-A1) does the source give for O=C(O)C1=NN(c2ccc(S(=O)(=O)O)cc2)C(=O)C1 [Compound C21-A2] here?
Answer: The value was ~ 4 fold.

Question: With Cc1cc(S(=O)(=O)O)ccc1N1N=C(C(=O)O)CC1=O [Compound C21-A1] as the compound, how does the “fold decreased SHP2 inhibition” value (SHP2 [1]; relative to C21) read?
Answer: Its value is ~ 5 fold.

Question: CC1=NN(c2ccc(S(=O)(=O)O)cc2C)C(=O)C1 [Compound C21-A4] was tested. Which IC50 (SHP2 [1]) did it give?
Answer: The IC50 was greater than 1000 µM.

Question: What about the “SHP2 inhibition at 1 mM” value (SHP2 [1]) of the same compound?
Answer: The value was “failed to inhibit SHP2”.

Question: For O=C(O)C1=NN(c2ccccc2)C(=O)C1 [Compound C21-A3], which IC50 (SHP2 [1]) is on record?
Answer: Its IC50 is greater than 1000 µM.

Question: And the “SHP2 inhibition at 1 mM” value (SHP2 [1])?
Answer: The value was “failed to inhibit SHP2”.

Question: Which results are given for CC(=O)c1c(C)oc2ccc(NS(=O)(=O)c3cccc(C(=O)O)c3)cc12 [Compound C30]?
Answer: concentration dependence of SHP2 inhibition (SHP2 [1]): concentration-dependent inhibition; inhibitory activity against SHP2 (in words) (SHP2 [1]): only moderate inhibitory activity; inhibition against SHP1 compared with SHP2 (in words) (SHP1): better inhibition; inhibition against PTP1B compared with SHP2 (in words) (PTP1B): better inhibition

Question: What does the source list for Cc1cc(S(=O)(=O)O)c(S(=O)(=O)O)cc1N1N=C(C(=O)O)CC1=O [Compound C21]?
Answer: concentration dependence of SHP2 inhibition (SHP2 [1]): concentration-dependent inhibition; inhibition of LYP (LYP): almost no inhibition; inhibition of PTPα (PTPα): almost no inhibition; inhibition of VHR (VHR): almost no inhibition; inhibition of Cdc14 (Cdc14): almost no inhibition; mode of inhibition against SHP2 (SHP2 [2]): reversible and competitive

Question: For CC(=O)N(c1ccc2oc3c(c2c1)CCCC3)S(=O)(=O)c1ccc(C(=O)O)cc1 [Compound C18], which “concentration dependence of SHP2 inhibition” value (SHP2 [1]) is on record?
Answer: The value was “concentration-dependent inhibition”.

Question: What about the “inhibitory activity against SHP2 (in words)” value (SHP2 [1]) of the same compound?
Answer: The value was “only moderate inhibitory activity”.

Question: And the “inhibition against SHP1 compared with SHP2 (in words)” value (SHP1)?
Answer: The value was “better inhibition”.

Question: And the “inhibition against PTP1B compared with SHP2 (in words)” value (PTP1B)?
Answer: Its value is “better inhibition”.
